# Assay results published in PubChem BioAssay (NCI).
#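 In this assay, cells in 96-well plates receive the compound at five concentrations for 48 hours. Endpoints are linearly interpolated between the surrounding concentrations. TGI denotes the concentration required for complete inhibition of growth.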
# Legend:
# Assay in all cases: NCI-60 cell line screen, 48 h
# BT-549 breast = system: BT-549 breast
# CCRF-CEM leukemia = system: CCRF-CEM leukemia
# DU-145 prostate = system: DU-145 prostate
# HCT-15 colon = system: HCT-15 colon
# HS 578T breast = system: HS 578T breast
# MALME-3M melanoma = system: MALME-3M melanoma
# MDA-MB-435 = system: MDA-MB-435
# SF-268 CNS = system: SF-268 CNS
# SNB-75 CNS = system: SNB-75 CNS
# T-47D breast = system: T-47D breast
# TK-10 renal = system: TK-10 renal
# UO-31 renal = system: UO-31 renal
SMILES,TGI (BT-549 breast) [µM],TGI (CCRF-CEM leukemia) [µM],TGI (DU-145 prostate) [µM],TGI (HCT-15 colon) [µM],TGI (HS 578T breast) [µM],TGI (MALME-3M melanoma) [µM],TGI (MDA-MB-435) [µM],TGI (SF-268 CNS) [µM],TGI (SNB-75 CNS) [µM],TGI (T-47D breast) [µM],TGI (TK-10 renal) [µM],TGI (UO-31 renal) [µM]
COc1ccc2c(c1)CC[C@@H]1[C@@H]2CC[C@]2(C)/C(=N/OCCN3CCCCC3)CC[C@@H]12,28.7,10.4,14.7,6.23,26.6,4.89,16.9,24.7,18.2,19.2,14.4,10.7
Cn1c2ccccc2n2c3nc4ccccc4nc3c(C#N)c12,> 100,> 100,> 100,> 100,> 100,> 100,> 100,> 100,> 100,> 100,> 100,> 100
C/C(=N/O)c1cccc(Nc2nc3ccccc3c3[nH]c4ccccc4c23)c1,34.7,> 100,5.59,10.6,21.4,13.8,7.52,6.24,6.95,3.82,15.6,12
COC(=O)C(Cc1ccccc1)NC(=O)CNC(=O)CSc1nnc(COc2ccc(Cl)cc2)n1-c1ccccc1 (stereo not given),35.6,7.42,33,36.4,70.4,34.5,35,33,37.1,51.4,27.7,3.28
COC(=O)c1c(O)ccc2c1c1c(n2C)C(=O)c2ccccc2C1=O,45.8,51.9,72.7,> 100,42.2,> 100,> 100,43.6,15,13.1,86.4,> 100
CCn1c2c(c3c(C(=O)OC)c(O)ccc31)C(=O)c1ccccc1C2=O,39.5,43.6,38.9,30.1,55.3,35,32.4,69.6,39.9,33,> 100,27.3
COC(=O)/C=C1/OC(c2ccccc2)=C(Cl)C1=O,40.3,19.9,> 76.2,25.4,66.8,36,39.5,48.1,48.5,> 56.6,51.6,49.2
COC1CCC(OC2CC(C3(C)CCC4(CC(O)C(C)C(C(C)/C=C(\C)C(=O)C(C)CC(C)C(=O)O)O4)O3)OC3(OC(C4OC(O)(CO)C(C)CC4C)CC3C)C2C)OC1C (stereo not given),1.26,0.509,3.63,1.95,1.15,0.103,0.564,2.84,0.568,1.22,5.79,5.91
COc1cc(C2c3cc4c(cc3OC(N3CCOCC3)C2C)OCO4)cc(OC)c1O (stereo not given),60.6,> 100,> 100,25.5,25.6,16.2,6.27,> 100,7.64,> 100,70.6,> 66.4
CCCCCc1c(CCCC)c(=O)[nH]c2cc(CNCC(OC)OC)ccc12,28,19.2,28,23.8,38.7,7.83,24,32.6,29.3,31.8,28.7,26.4
